# Measured values taken from US8946199B2, “Co-administration of steroids and Zoledronic acid to prevent and treat side effects from Zoledronic acid infusion” (priority 2010, dated 2015).
# Key:
# [1] = administration of Zometa; syndrome of fever, nausea, bone pain, arthralgia, myalgia, chills; cited from earlier work
# [2] = patients with osteoporosis; Zoledronic Acid alone, 3 patients
# Protocol: In theory, co-administration of a steroid for a short duration could decrease inflammation and therefore the incidence of ONJ. […] A study comparing the incidence of PDS with Zoledronic acid with a Zoledronic Acid and steroid combination is, however, feasible and such a study has been undertaken.
# Eight patients with osteoporosis were treated with Zoledronic Acid alone (3 patients) or with the combination of steroids (oral prednisone, 3, and intravenous prednisolone, 2) with Zoledronic Acid.
# [3] = in vivo; cited from earlier work
structure (smiles),measurement,setting,value
O=P(O)(O)C(O)(Cn1ccnc1)P(=O)(O)O [Zoledronic Acid],patients affected by post-dosing syndrome (PDS),[1],≤ 44%
same,patients who suffered from PDS,[2],All three
same,t1/2α,[3],14.4 min
